# Square brackets hold non-standard residues; d marks the D form. Peptide text beside a SMILES is read from it. * marks the point of attachment. Stearoyl = CCCCCCCCCCCCCCCCCC(=O)*; 12Ado = NCCCCCCCCCCCC(=O)O; Aoc = NCCCCCCCC(=O)O; Ahp = NCCCCCCC(=O)O; Ahx = NCCCCCC(=O)O; Ava = NCCCCC(=O)O; GABA = NCCCC(=O)O
# Legend:
# PLC-γ1 = target: T1, PLC-γ1 (Bos taurus, UniProt P08487); assay: PLC-inhibiting activity (release of [3H]inositol phosphate from [3H]PIP2); assay type: biochemical, bovine; settings: 37°C, 10 minutes, pH 6.0, read-out: Inhibition rate (%)
# T1 construct: A sample of PLC-γ1 was prepared from bovine thymus; from tissue; host or cells: bovine thymus
# T1 sequence (P08487 1-1291): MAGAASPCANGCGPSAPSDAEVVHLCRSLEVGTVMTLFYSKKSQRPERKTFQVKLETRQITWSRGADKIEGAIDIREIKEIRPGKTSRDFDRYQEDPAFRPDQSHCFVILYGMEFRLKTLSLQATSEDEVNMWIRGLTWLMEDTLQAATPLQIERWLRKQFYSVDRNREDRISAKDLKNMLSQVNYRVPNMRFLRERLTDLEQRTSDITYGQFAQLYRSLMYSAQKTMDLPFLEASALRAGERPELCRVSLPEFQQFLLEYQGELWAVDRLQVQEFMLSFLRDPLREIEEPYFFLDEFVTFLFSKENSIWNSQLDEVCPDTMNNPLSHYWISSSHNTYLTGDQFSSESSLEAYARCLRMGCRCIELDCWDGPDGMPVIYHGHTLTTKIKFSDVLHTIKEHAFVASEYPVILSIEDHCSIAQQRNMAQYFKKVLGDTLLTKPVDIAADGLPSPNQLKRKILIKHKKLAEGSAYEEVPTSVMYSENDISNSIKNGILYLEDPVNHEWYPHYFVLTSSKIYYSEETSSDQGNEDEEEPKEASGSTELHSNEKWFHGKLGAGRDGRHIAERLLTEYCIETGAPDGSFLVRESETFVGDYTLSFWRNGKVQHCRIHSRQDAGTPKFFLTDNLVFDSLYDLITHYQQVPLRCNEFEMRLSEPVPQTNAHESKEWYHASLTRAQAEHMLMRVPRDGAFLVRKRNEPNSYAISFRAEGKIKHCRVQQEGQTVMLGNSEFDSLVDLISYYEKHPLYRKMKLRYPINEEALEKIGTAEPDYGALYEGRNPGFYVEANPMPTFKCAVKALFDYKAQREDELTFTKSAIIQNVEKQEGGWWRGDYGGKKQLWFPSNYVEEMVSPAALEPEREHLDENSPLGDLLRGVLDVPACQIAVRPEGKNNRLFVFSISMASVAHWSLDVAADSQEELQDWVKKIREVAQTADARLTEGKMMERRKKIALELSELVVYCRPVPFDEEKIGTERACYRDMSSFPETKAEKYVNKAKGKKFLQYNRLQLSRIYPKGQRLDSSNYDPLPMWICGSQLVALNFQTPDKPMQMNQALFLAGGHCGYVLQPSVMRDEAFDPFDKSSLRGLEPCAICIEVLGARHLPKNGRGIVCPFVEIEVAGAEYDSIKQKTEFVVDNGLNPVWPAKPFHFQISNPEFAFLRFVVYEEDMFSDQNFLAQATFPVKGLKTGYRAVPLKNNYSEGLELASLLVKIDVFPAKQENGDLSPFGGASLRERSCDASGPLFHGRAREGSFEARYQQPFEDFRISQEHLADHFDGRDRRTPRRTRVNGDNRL
# Protocol: A sample of PLC-γ1 was prepared from bovine thymus according to the method described in Y. Honma et al., Biochem. J., 269, 13 (1990). A solution having the composition shown in Table 2 below was prepared on ice and was heated to 37°C to start reaction. After incubation for 10 minutes, 2 ml of a chloroform/methanol mixture (2:1, v/v) was added thereto to stop the reaction. The resulting inositol phosphate was extracted with 0.5 ml of 1 N hydrochloric acid. The extract was separated into two liquid phases by centrifugation (2000 x g, 3 minutes), and the amount of ^3H contained in the supernatant (0.7 ml) was measured with a scintillation counter. Table 2 [table] The inhibition rate (X) was calculated according to the following equation: X (%) = (A-C) / (B-C) x 100 [formula] where A is the obtained value of specific radioactivity, B is the value of specific radioactivity obtained when the same amount of water was added instead of the aqueous solution of the test peptide, and C is the value of specific radioactivity obtained when the same amount of water was added instead of the sample and the aqueous solution of the test peptide.
# [1] = system: Pseudomonas aeruginosa Bin H No. 1; assay type: cell-based; settings: Bin H No. 1, pH 7
# Protocol: (§1) The antibacterial activity was determined by the agar dilution method using a medium (pH 7.0) which comprises 3 g/l Bacto-tryptone (Difco Laboratories), 1 g/l meat extract, 1 g/l glucose and 16 g/l agar.
# KMS-4 cells = assay: Cell growth-inhibiting activity (BrdU incorporation, cell growth detection kit); assay type: cell-based; settings: culturing with peptide for 17 hours
# Protocol: The cell growth-inhibiting activity was determined using a cell growth detection kit (Amersham) in the following manner. KMS-4 cells [M. Nanba et al, International Journal of Cancer, 32, 697 (1983)] were suspended in DMEM medium (Nissui Pharmaceutical Co., Ltd.) containing 10% fetal calf serum at a density of 1-2 x 10^4 cells/ml, and 1 ml of the cell suspension was put into each well of a 24-well plate (Corning Inc.). The cells were cultured in a CO2 incubator (37°C, 5% CO2) for 2 days. Then, the medium was replaced with a fresh DMEM medium containing 10% fetal calf serum, and the test peptide was added thereto, followed by culturing for 17 hours. The medium was replaced with a serum-free DMEM medium, and 0.5 ml of a solution prepared by diluting labeled reagent 5-bromo-2'-deoxyuridine (BrdU) and 5-fluoro-2'-deoxyuridine (FdU) (10:1) 1000-fold with the same medium was added to each well, followed by culturing for 2 hours. Then the medium was removed, and the cells were immobilized with an acetic acid/ethanol solution. The immobilized cells were stained according to the method for the cell growth detection kit of Amersham, and then further stained with a 1% Giemsa solution (Merck & Co., Inc.). The number of cells which incorporated BrdU and the total number of cells within one field of vision of a microscope (approximately 200 cells) were determined, and the proportion (%) of stained cells per field of vision was calculated. The above procedure was repeated 10 times, and the average value thereof was defined as the cell growth activity (%). The cell growth-inhibiting activity was calculated in the following manner. That is, the cell growth inhibition rate was calculated according to the following equation: X (%) = (1-B/A) x 100 [formula] where A is the growth activity when no peptide was added, and B is the growth activity when the test peptide was added.
# [2] = system: Proteus vulgaris ATCC 6897; assay type: cell-based; settings: ATCC 6897, pH 7
# Protocol: as §1
# [3] = system: Bacillus subtilis No. 10707; assay type: cell-based; settings: No. 10707, pH 7
# Protocol: as §1
SMILES,MIC (µg/ml) PA [1],Inhibition rate (%) (KMS-4 cells; Concentration 1 µM),MIC (µg/ml) PV [2],MIC (µg/ml) BS [3],also measured
"CSCC[C@H](NC(=O)[C@H](CCCCN)NC(=O)[C@H](CCCNC(=N)N)NC(=O)[C@H](Cc1ccc(O)cc1)NC(=O)[C@H](CC(C)C)NC(C)=O)C(=O)N[C@@H](CCCNC(=N)N)C(=O)N[C@@H](CC(C)C)C(=O)N[C@@H](CCCNC(=N)N)C(=O)N[C@@H](Cc1ccc(O)cc1)C(=O)N1CCC[C@H]1C(=O)N[C@H](C(=O)NCCCCCCCCCCCC(N)=O)C(C)C [Compound (I-7), CH3CO-Leu-Tyr-Arg-Lys-Met-Arg-Leu-Arg-Tyr-Pro-Val-NH-(CH2)11CONH2] (Ac-LYRKMRLRYPV[12Ado]-NH2)",150 µg/mL,39%,,,inhibition at 114 µM (PLC-γ1; Concentration 114 µM (aqueous solution of test peptide provided for the test)): 82%
"CSCC[C@H](NC(=O)[C@H](CCCCN)NC(=O)[C@H](CCCNC(=N)N)NC(=O)[C@H](Cc1ccc(O)cc1)NC(=O)[C@H](CC(C)C)NC(C)=O)C(=O)N[C@@H](CCCNC(=N)N)C(=O)N[C@@H](CC(C)C)C(=O)N[C@@H](CCCNC(=N)N)C(=O)N[C@@H](Cc1ccc(O)cc1)C(=O)N1CCC[C@H]1C(=O)N[C@H](C(=O)NCCCCCC(N)=O)C(C)C [Compound (I-3), CH3CO-Leu-Tyr-Arg-Lys-Met-Arg-Leu-Arg-Tyr-Pro-Val-NH-(CH2)5CONH2] (Ac-LYRKMRLRYPV[Ahx]-NH2)",175 µg/mL,,175 µg/mL,88 µg/mL,inhibition at 121 µM (PLC-γ1; Concentration 121 µM (aqueous solution of test peptide provided for the test)): 77%; Inhibition rate (%) (KMS-4 cells; Concentration 6 µM): 53%
"CSCC[C@H](NC(=O)[C@H](CCCCN)NC(=O)[C@H](CCCNC(=N)N)NC(=O)[C@H](Cc1ccc(O)cc1)NC(=O)[C@H](CC(C)C)NC(C)=O)C(=O)N[C@@H](CCCNC(=N)N)C(=O)N[C@@H](CC(C)C)C(=O)N[C@@H](CCCNC(=N)N)C(=O)N[C@@H](Cc1ccc(O)cc1)C(=O)N1CCC[C@H]1C(=O)N[C@H](C(=O)NCCCCC(N)=O)C(C)C [Compound (I-2), CH3CO-Leu-Tyr-Arg-Lys-Met-Arg-Leu-Arg-Tyr-Pro-Val-NH-(CH2)4CONH2] (Ac-LYRKMRLRYPV[Ava]-NH2)",77 µg/mL,68%,77 µg/mL,77 µg/mL,inhibition at 122 µM (PLC-γ1; Concentration 122 µM (aqueous solution of test peptide provided for the test)): 75%
"CSCC[C@H](NC(=O)[C@H](CCCCN)NC(=O)[C@H](CCCNC(=N)N)NC(=O)[C@H](Cc1ccc(O)cc1)NC(=O)[C@H](CC(C)C)NC(C)=O)C(=O)N[C@@H](CCCNC(=N)N)C(=O)N[C@@H](CC(C)C)C(=O)N[C@@H](CCCNC(=N)N)C(=O)N[C@@H](Cc1ccc(O)cc1)C(=O)N1CCC[C@H]1C(=O)N[C@H](C(=O)NCCCCCCCC(N)=O)C(C)C [Compound (I-5), CH3CO-Leu-Tyr-Arg-Lys-Met-Arg-Leu-Arg-Tyr-Pro-Val-NH-(CH2)7CONH2] (Ac-LYRKMRLRYPV[Aoc]-NH2)",163 µg/mL,70%,,81 µg/mL,inhibition at 119 µM (PLC-γ1; Concentration 119 µM (aqueous solution of test peptide provided for the test)): 83%
"CSCC[C@H](NC(=O)[C@H](CCCCN)NC(=O)[C@H](CCCNC(=N)N)NC(=O)[C@H](Cc1ccc(O)cc1)NC(=O)[C@H](CC(C)C)NC(C)=O)C(=O)N[C@@H](CCCNC(=N)N)C(=O)N[C@@H](CC(C)C)C(=O)N[C@@H](CCCNC(=N)N)C(=O)N[C@@H](Cc1ccc(O)cc1)C(=O)N1CCC[C@H]1C(=O)N[C@H](C(=O)NCCCCCCC(N)=O)C(C)C [Compound (I-4), CH3CO-Leu-Tyr-Arg-Lys-Met-Arg-Leu-Arg-Tyr-Pro-Val-NH-(CH2)6CONH2] (Ac-LYRKMRLRYPV[Ahp]-NH2)",129 µg/mL,,129 µg/mL,129 µg/mL,inhibition at 120 µM (PLC-γ1; Concentration 120 µM (aqueous solution of test peptide provided for the test)): 89%; Inhibition rate (%) (KMS-4 cells; Concentration 25 µM): 47%
"CSCC[C@H](NC(=O)[C@H](CCCCN)NC(=O)[C@H](CCCNC(=N)N)NC(=O)[C@H](Cc1ccc(O)cc1)NC(=O)[C@H](CC(C)C)NC(C)=O)C(=O)N[C@@H](CCCNC(=N)N)C(=O)N[C@@H](CC(C)C)C(=O)N[C@@H](CCCNC(=N)N)C(=O)N[C@@H](Cc1ccc(O)cc1)C(=O)N1CCC[C@H]1C(=O)N[C@H](C(=O)NCCCC(N)=O)C(C)C [Compound (I-1), CH3CO-Leu-Tyr-Arg-Lys-Met-Arg-Leu-Arg-Tyr-Pro-Val-NH-(CH2)3CONH2] (Ac-LYRKMRLRYPV[GABA]-NH2)",167 µg/mL,10%,83 µg/mL,167 µg/mL,inhibition at 123 µM (PLC-γ1; Concentration 123 µM (aqueous solution of test peptide provided for the test)): 85%
"CCCCCCCCCCCCCCCCCC(=O)N[C@@H](CC(C)C)C(=O)N[C@@H](Cc1ccc(O)cc1)C(=O)N[C@@H](CCCNC(=N)N)C(=O)N[C@@H](CCCCN)C(=O)N[C@@H](CCSC)C(=O)N[C@@H](CCCNC(=N)N)C(=O)N[C@@H](CC(C)C)C(=O)N[C@@H](CCCNC(=N)N)C(=O)N[C@@H](Cc1ccc(O)cc1)C(=O)N1CCC[C@H]1C(=O)N[C@H](C(=O)NCCCCCCCCCCCC(N)=O)C(C)C [Compound (I-8), C17H35CO-Leu-Tyr-Arg-Lys-Met-Arg-Leu-Arg-Tyr-Pro-Val-NH-(CH2)11CONH2] (Stearoyl-LYRKMRLRYPV[12Ado]-NH2)",106 µg/mL,,,,inhibition at 20 µM (PLC-γ1; Concentration 20 µM (aqueous solution of test peptide provided for the test)): 76%

# From patent EP0760376A1, “PEPTIDES INHIBITING PHOSPHOLIPASE C” (Kyowa Hakko Kogyo Co., Ltd., priority 1995, dated 1996)
